Measured values: paper PMC10182956 (Archives of Toxicology, 2023)
“Also recorded” adds a separate entry of the source. Where two headings read alike, the source gives them in different places.

What was measured:
HepaRG cells [1] = test: Cell viability assessment (WST-1 assay); assay type: cell-based, human; settings: 95% CI in brackets
Source text: Undifferentiated HepaRG cells were purchased from Biopredic international (Saint Grégoire, France). HepaRG cells have unlimited growth capacity and phenotypic stability, stable enzymatic activities over 4 weeks of cultivation, and similar metabolic function to primary human hepatocytes, and also avoid limitations of primary cells such as donor variability and phenotypic instability (Aninat et al. [2006]; Guillouzo et al. [2007]; Lambert et al. [2009]; Lübberstedt et al. [2011]; Andersson et al. [2012]). The line contains two cell types, hepatocyte-like and cholangiocyte-like cells (Parent et al. [2004]), which allows for elucidation of cell-specific toxicity (Jossé et al. [2008]). Cells were seeded at a density of approximately 27′000 cells/cm^2 into a 150 × 25 mm petri dish and were cultured for 2 weeks in William’s E medium (cat. nr.: 32,551,020, ThermoFisher Scientific, Massachusetts, USA) supplemented with 2 mM glutamine, 10% (v/v) fetal bovine serum (FBS) good forte (cat. nr.: P40-47,500, PAN-Biotech, Aidenbach, Germany), 100 U/ml penicillin and 100 µg/ml streptomycin (cat. nr.: 15,140,122, ThermoFisher Scientific, Massachusetts, USA), 5 µg/ml Gibco recombinant AOF insulin (cat. nr.: A11382II, ThermoFisher Scientific, Massachusetts, USA) and 50 µM hydrocortisone hemisuccinate (cat. nr.: H4881, Sigma-Aldrich, St. Louis, USA) at 37 °C and 5% CO2. Differentiation was induced by culturing the cells for another 2 weeks in the above mentioned medium supplemented with 1.7% DMSO. After 4 weeks in culture, differentiated HepaRG cells were seeded at a high density of approximately 227′000 cells/cm^2 (72,000 cells/well with 100 µl per well) into black 96-well plates with a clear bottom (cat.nr.: 3603, Corning, New York, USA) and maintained for 10 days. After 10 days, cells were first adapted to treatment medium (culture medium containing 0.5% DMSO and 2% FBS) for 48 h and then used for cell viability and high-content imaging analysis.
Cell viability was analyzed using the WST-1 assay which is based on the measurement of mitochondrial dehydrogenase activity (cat. nr: ab155902, Abcam, Cambridge, UK). HepaRG cells were exposed to chemicals at defined concentrations for 24 h. Triton X-100 (0.01%) was a positive control. One hour before the end of incubation period, 10 µl of WST-1 reagent was added to each well, quickly mixed by shaking the plate, and returned to the cell culture incubator (37 °C, 5% CO2). After 1 h, absorbance was measured (450 nm, reference wavelength 620 nm) using a plate reader (Infinite M200 Pro, Tecan group, Männerdorf, Switzerland). Absorbance was then subtracted from the reference wavelength, corrected for background by subtracting values measured without cells, and then normalized to the solvent control, which was set to 100%. Dose–response data were fitted using drc package (Version 3.0.1) (Ritz et al. [2015]) in R 3.6.1. Data were from at least 3 independent experiments with 6 technical replicates per condition.

HepaRG cells [2] = test: High-content imaging assay: lipid accumulation (Bodipy lipid droplets); assay type: cell-based; settings: for Lipid accumulation response (in words): population level, threshold ± 2 standard deviations of the response at the two lowest concentrations; for EC (BMC, 1 SD from control): read-out: LA: Benchmark concentration (µM) per imaging endpoint calculated with BMDS software
[3] = for OED (mg/kg BW/day): IVIVE derived median with 95% CI, from BMC of positive imaging endpoint, oral, daily dosing, Table 1; for OED compared with reported NOAEL, LOAEL concentrations or the exposure estimate (in words): human; for OED: IVIVE derived median over all positive imaging endpoints, human simulation, Table 2
[4] = atrazine: increase relative liver weight, ref Aguilar et al. [2009], ATSDR [2003], Food and Authority [2009a], Food and Authority [2009b], cited from earlier work; for NOAEL from literature (mg/kg BW/day): first value of cell NOAEL/LOAEL; for LOAEL from literature (mg/kg BW/day): second value of cell NOAEL/LOAEL
HepaRG cells [5] = settings: HepaRG 24 h; for Mitochondrial membrane potential response (in words): population level, threshold ± 2 standard deviations of the response at the two lowest concentrations
HepaRG cells [6] = test: cells; settings: Homo sapiens, 24 h, read-out: MMP: Benchmark concentration (µM) per imaging endpoint calculated with BMDS software
[7] = cited from earlier work; for In vivo blood plasma conc.: ref Aguilar et al. [2009], D’Apolito et al. [2012], Li et al. [2009]; for In vivo Css: human, published, ref Birkett and Miners 1991, Graham et al. 2011, Freedman and Somberg 1991, Vasudev et al. 2001
HepaRG cells [8] = settings: for OS: Benchmark concentration (µM) per imaging endpoint calculated with BMDS software: oxidative stress, Supplementary table 3; for Oxidative stress response (in words): population level, threshold ± 2 standard deviations of the response at the two lowest concentrations
HepaRG cells [9] = tested on: HepaRG cells
HepaRG cells [10] = test: cells; settings: Homo sapiens, 24 h, read-out: NM: Benchmark concentration (µM) per imaging endpoint calculated with BMDS software
[11] = Homo sapiens, WST-1, 24 h exposure, food-related chemicals and pesticides, read-out: EC50 (95% CI) in µM from cell viability assay
[12] = Homo sapiens, lipid accumulation, HepaRG 24 h, BMR one standard deviation from control mean, Table 1
[13] = Homo sapiens, 24 h exposure, reference chemicals, read-out: EC50 µM (95% CI) from cell viability (WST-1)

CC1=CC[C@@H](C(C)(C)O)CC1 [Alpha-terpineol]
EC50 (HepaRG cells [1]; [11]): 2560 µM

CCNc1nc(Cl)nc(NC(C)C)n1 [Atrazine]
Lipid accumulation response (in words) (HepaRG cells [2]; HepaRG 24 h): induced significant lipid accumulation | EC (BMC, 1 SD from control) (HepaRG cells [2]; [12]): 19 µM | OED (mg/kg BW/day) [3]: 0.5 (95% CI 0.2–1.7) mg/kg BW/day | NOAEL from literature (mg/kg BW/day) [4]: 5 mg/kg BW/day

CC(C)(c1ccc(O)cc1)c1ccc(O)cc1 [Bisphenol A]
EC50 (HepaRG cells [1]; [11]): 237 µM | Lipid accumulation response (in words) (HepaRG cells [2]; HepaRG 24 h): induced significant lipid accumulation

CNC(=O)Oc1cccc2c1OC(C)(C)C2 [Carbofuran]
Lipid accumulation response (in words) (HepaRG cells [2]; HepaRG 24 h): did not stimulate lipid accumulation | Mitochondrial membrane potential response (in words) (HepaRG cells [5]): dose-dependent increase in MMP exceeding the threshold | EC (BMC, 1 SD from control) (HepaRG cells [6]): 4980 µM | NOAEL from literature (mg/kg BW/day) [4]: 0.03–0.1 mg/kg BW/day | LOAEL from literature (mg/kg BW/day) [4]: 0.1–0.3 mg/kg BW/day

CCCCN(CCCC)SN(C)C(=O)Oc1cccc2c1OC(C)(C)C2 [Carbosulfan]
EC (BMC, 1 SD from control) (HepaRG cells [2]; [12]): 77 µM | OED (mg/kg BW/day) [3]: 10.4 (95% CI 7–19.3) mg/kg BW/day | OED compared with reported NOAEL, LOAEL concentrations or the exposure estimate (in words) [3]: overlapped | NOAEL from literature (mg/kg BW/day) [4]: 0.5–1.2 mg/kg BW/day | LOAEL from literature (mg/kg BW/day) [4]: 5–62 mg/kg BW/day

C[C@H](CCC(=O)O)[C@H]1CC[C@H]2[C@@H]3CC[C@@H]4C[C@H](O)CC[C@]4(C)[C@H]3C[C@H](O)[C@]12C [Deoxycholic acid]
EC50 (HepaRG cells [1]; [11]): 246 µM

N#CC(C#N)=NNc1ccc(OC(F)(F)F)cc1 [FCCP, carbonylcyanide-p-trifluoromethoxyphenylhydrazone]
Concentration at which decrease of mitochondrial membrane potential exceeded the threshold (HepaRG cells [5]): 2.5 µM

N#Cc1nn(-c2c(Cl)cc(C(F)(F)F)cc2Cl)c(N)c1[S+]([O-])C(F)(F)F (stereo not shown) [Fipronil]
EC50 (HepaRG cells [1]; [11]): 21 µM

O=C(CO)[C@@H](O)[C@H](O)[C@H](O)CO [Fructose]
EC50 (HepaRG cells [1]; [11]): 6.6 µM | Lipid accumulation response (in words) (HepaRG cells [2]; HepaRG 24 h): did not stimulate lipid accumulation | Mitochondrial membrane potential response (in words) (HepaRG cells [5]): dose-dependent increase in MMP exceeding the threshold

Cc1cccc(C)c1N(Cn1cccn1)C(=O)CCl [Metazachlor]
EC50 (HepaRG cells [1]; [11]): 183 µM | Lipid accumulation response (in words) (HepaRG cells [2]; HepaRG 24 h): induced significant lipid accumulation

O=C(O)c1cc(=O)[nH]c(=O)[nH]1 [Orotic acid]
Lipid accumulation response (in words) (HepaRG cells [2]; HepaRG 24 h): did not stimulate lipid accumulation | Mitochondrial membrane potential response (in words) (HepaRG cells [5]): dose-dependent increase in MMP exceeding the threshold | OED (mg/kg BW/day) [3]: 61.2 (95% CI 21.1–134) mg/kg BW/day | OED compared with reported NOAEL, LOAEL concentrations or the exposure estimate (in words) [3]: overlapped | EC (BMC, 1 SD from control) (HepaRG cells [6]): 423 µM | In vivo blood plasma conc. [7]: 0.15 to 0.3 µM | NOAEL from literature (mg/kg BW/day) [4]: 50 mg/kg BW/day | LOAEL from literature (mg/kg BW/day) [4]: 100 mg/kg BW/day

O=[As][O-].[Na+] [Sodium arsenite]
Concentration at which increase of oxidative stress exceeded the threshold (HepaRG cells [8]): 25 µM | Concentration at which increase of number of apoptotic cells (nuclear morphology) exceeded the threshold (HepaRG cells [9]): 25 µM

O=S(=O)(c1ccccc1)N(CC(F)(F)F)c1ccc(C(O)(C(F)(F)F)C(F)(F)F)cc1 [T0901317]
EC50 (HepaRG cells [1]; 24 h exposure, reference chemicals, read-out: EC50 µM (95% CI) from cell viability (WST-1)): 42.9 µM | Lipid accumulation response (in words) (HepaRG cells [2]; HepaRG 24 h): dose-dependently increased and exceeded the threshold | Mitochondrial membrane potential response (in words) (HepaRG cells [5]): decrease in MMP below the threshold | Concentration at which increase of oxidative stress exceeded the threshold (HepaRG cells [8]; HepaRG 24 h): 40 µM | Concentration at which increase of number of apoptotic cells (nuclear morphology) exceeded the threshold (HepaRG cells [9]; HepaRG 24 h): 40 µM

O=C([O-])C1=NN(c2ccc(S(=O)(=O)[O-])cc2)C(=O)C1N=Nc1ccc(S(=O)(=O)[O-])cc1.[Na+].[Na+].[Na+] (stereo not shown) [Tartrazine]
Lipid accumulation response (in words) (HepaRG cells [2]; HepaRG 24 h): induced significant lipid accumulation

O=c1[nH]c(=O)c2[nH]c(=O)[nH]c2[nH]1 [Uric acid]
Lipid accumulation response (in words) (HepaRG cells [2]; HepaRG 24 h): induced significant lipid accumulation | EC (BMC, 1 SD from control) (HepaRG cells [2]; [12]): 591 µM | OED (mg/kg BW/day) [3]: 87.3 (95% CI 67.3–150.6) mg/kg BW/day | In vivo blood plasma conc. [7]: 217 to 402 µM

C=CC1(C)OC(=O)N(c2cc(Cl)cc(Cl)c2)C1=O (stereo not shown) [Vinclozolin]
Lipid accumulation response (in words) (HepaRG cells [2]; HepaRG 24 h): induced significant lipid accumulation

CCCCc1oc2ccccc2c1C(=O)c1cc(I)c(OCCN(CC)CC)c(I)c1 [amiodarone]
EC (BMC, 1 SD from control) (HepaRG cells [2]; 24 h): 8.5 µM | Lipid accumulation response (in words) (HepaRG cells [2]; HepaRG 24 h): increased in a dose-dependent manner | Concentration at which decrease of mitochondrial membrane potential exceeded the threshold (HepaRG cells [5]): 25 µM | Concentration at which increase of oxidative stress exceeded the threshold (HepaRG cells [8]; HepaRG 24 h): 25 µM | OS: Benchmark concentration (µM) per imaging endpoint calculated with BMDS software (HepaRG cells [8]; HepaRG 24 h): 5.35 µM | OED [3]: 15.8 mg/kg/day | EC (BMC, 1 SD from control) (HepaRG cells [6]): 13.8 µM | EC (BMC) (HepaRG cells [10]): 14.9 µM | In vivo Css [7]: 5.4 to 6.0 µM

Cn1c(=O)c2c(ncn2C)n(C)c1=O [caffeine]
EC50 (HepaRG cells [1]; [13]): 6530 µM | Lipid accumulation response (in words) (HepaRG cells [2]; HepaRG 24 h): decrease of lipid accumulation that exceeded the threshold | Concentration at which decrease of lipid accumulation exceeded the threshold (HepaRG cells [2]; HepaRG 24 h, only at the highest concentration): 5000 µM

CCOC(=O)[C@@]1(CCCCCCOc2ccc(Cl)cc2)CO1 [etomoxir]
EC50 (HepaRG cells [1]; [13]): 144 µM | Lipid accumulation response (in words) (HepaRG cells [2]; HepaRG 24 h): neither induced lipid accumulation; also recorded: did not give rise to lipid accumulation | Concentration at which increase of MMP (hyperpolarization) was observed / exceeded the threshold (HepaRG cells [5]): 36 µM | Mitochondrial membrane potential response (in words) (HepaRG cells [5]): increased MMP | Oxidative stress response (in words) (HepaRG cells [8]; HepaRG 24 h): neither induced lipid accumulation, had any consistent impact on oxidative stress

C=C(C)[C@H]1Cc2c(ccc3c2O[C@@H]2COc4cc(OC)c(OC)cc4[C@@H]2C3=O)O1 [rotenone]
EC50 (HepaRG cells [1]; [13]): 18.9 µM | Lipid accumulation response (in words) (HepaRG cells [2]; HepaRG 24 h): increased in a dose-dependent manner | Concentration at which decrease of mitochondrial membrane potential exceeded the threshold (HepaRG cells [5]): 2.5 µM | OED [3]: 0.3 mg/kg/day

CCCC(CCC)C(=O)O [valproic acid]
Lipid accumulation response (in words) (HepaRG cells [2]; HepaRG 24 h): accumulated in a dose-dependent manner above the threshold | EC (BMC, 1 SD from control) (HepaRG cells [2]; Homo sapiens, lipid accumulation, HepaRG 24 h, Supplementary table 3): 570 µM | Mitochondrial membrane potential response (in words) (HepaRG cells [5]): did not affect MMP | Oxidative stress response (in words) (HepaRG cells [8]; HepaRG 24 h): no changes were observed | OS: Benchmark concentration (µM) per imaging endpoint calculated with BMDS software (HepaRG cells [8]; HepaRG 24 h): 1379.8 µM | OED [3]: 92.7 mg/kg/day | EC (BMC, 1 SD from control) (HepaRG cells [6]): 1310 µM | EC (BMC) (HepaRG cells [10]): 612 µM | In vivo Css [7]: 346.7 to 693.4 µM
